Source: publication PMC3127123, “Effect of 2-Hydroxypropyl-β-cyclodextrin on Solubility of Sparingly Soluble Drug Derivatives of Anthranilic Acid” (International Journal of Molecular Sciences, 2011)
Values after ≈ are worked out from the molar mass of the structure shown. Like-named read-outs stand apart in the source and are kept apart here.

Legend:
[1] = T = 298.15 K, cited from earlier work
[2] = cited from earlier work
[3] = Thermodynamic parameters of complexation from temperature dependence of stability constant (van't Hoff); assay type: physicochemical; details: T = 298.15 K, pH = 7 (buffer solution)
Excerpt: Thermodynamic parameters of reactions i.e. the free energy change (ΔG), the enthalpy change (ΔH) and the entropy change (ΔS), can be obtained from the temperature dependence of stability constant.

[4] = Phase solubility study: drug solubility in buffer solutions by UV-vis spectrophotometry; assay type: physicochemical; details: buffer solution without cyclodextrin, thermodynamic from solid, no cyclodextrin, read-out: solubility (C) in water (buffer solution), CD
Description: The calibration curves are included in these figures. The absorption spectra were recorded in the range of 190–350 nm and for the calculation of […] the change of absorption was measured at 340 nm (pH 7.0), 195 nm (pH 2.0) for MEF; 245 nm (pH 7.0), and 250 nm (pH 2.0) for NIF and 255 nm (pH 7.0), and 225 nm (pH 2.0) for FLU, respectively.
The UV-Vis spectrophotometer (Perkin–Elmer Life and Analytical Sciences, Shelton, USA) was used to determine the 2HP-β-CD influence on drug solubility. Maximum drug concentration was measured at different cyclodextrins concentrations, temperatures and pHs. Samples contained buffer solution with pH 7 or 2, 2HP-β-CD in different concentrations, i.e., 0, 1, 2, 4, 7 or 10 mmol·dm^−3 and drug in excess. Samples were thermostated and mixed for 20 hours and then left for 4 hours for separation. The uncertainties of the temperature measurements were judged to be 0.1 K. Absorbance of each sample was measured with the UV-vis spectrophotometer.
The stability constants were determined by the measurements of the concentration of the drug in the sample as a function of the cyclodextrin concentration. Such a method is usually called “Phase solubility study” [31]. In this method complex stability constants are calculated from the obtained solubility data using a spectophotometric method. As a reference sample, the buffer + 2HP-β-CD solutions were used. Two buffers were prepared (mol concentration) i.e., potassium dihydrogen phosphate (0.008), disodium hydrogen phosphate (0.008; buffer, pH = 7.0), potassium dihydrogen phosphate (0.05), hydrochloric acid (0.05, buffer, pH = 2.0). Samples were scanned with a scan step of 1 nm from 650 to 190 nm. Measurements at pH = 10 were not performed in all systems, because of the necessity of using too high drug concentrations and because of problems with separation of two phases.

[5] = Phase solubility study: effect of 2HP-β-CD on drug solubility and cyclodextrin-drug complex stability/dissociation constants; assay type: physicochemical; details: for cyclodextrin-drug complex stability constant Ks: 1:1 complex, Higuchi-Connors; for Kd: Kd = 1/Ks, value is Kd multiplied by 10^3, read-out: dissociation constant Kd·10^3; for solubility enhance ratio (R): drug concentration at highest 2HP-β-CD concentration relative to no cyclodextrin; for stability constant log Ks: pH = 7, T = 298.15 K, our value, phase solubility
Description: Solubility enhance ratio, R, was calculated as a drug concentration at the highest cyclodextrin concentration with relation to drug concentration in the absence of cyclodextrin. […] The opposite effect is observed for NIF. […] In general, when the solubility of the drug is very low, the solubility enhance ratio, R is high. Substitution of hydroxyl groups surrounding the 2HP-β-CD rim by the hydroxypropyl group promotes the complex formation process for drug derivatives of anthranilic acid with polar carboxylic substituent. […] Measurements of cyclodextrin-drug complex stability constants Ks and dissociation constants Kd are very important since these values indicate changes in physicochemical properties of a compound upon inclusion. Linear dependence of drug concentration to cyclodextrin concentration, with slope ratio below one usually assumes 1:1 ratio of complex. The stability constant, Ks, for complexes with 1:1 ratio is represented by: (1) Ks=[CD]/[D]⋅[C] Where: [D] is pure drug concentration, [C] is pure cyclodextrin concentration, and [CD] is concentration of drug-cyclodextrin complexes in solution. Complex dissociation constant, Kd, is represented by: […] For such systems, stability constant can be obtained by the following equation, investigated previously by Higuchi and Connors, 1965 [25]: (3) Ks=K1:1=slope/c0⋅(1−slope) […] Maximum drug concentration was measured at different cyclodextrins concentrations, temperatures and pHs. […] Samples were thermostated and mixed for 20 hours and then left for 4 hours for separation. The uncertainties of the temperature measurements were judged to be 0.1 K. Absorbance of each sample was measured with the UV-vis spectrophotometer. The stability constants were determined by the measurements of the concentration of the drug in the sample as a function of the cyclodextrin concentration. Such a method is usually called “Phase solubility study” [31]. In this method complex stability constants are calculated from the obtained solubility data using a spectophotometric method. As a reference sample, the buffer + 2HP-β-CD solutions were used. Two buffers were prepared (mol concentration) i.e., potassium dihydrogen phosphate (0.008), disodium hydrogen phosphate (0.008; buffer, pH = 7.0), potassium dihydrogen phosphate (0.05), hydrochloric acid (0.05, buffer, pH = 2.0). Samples were scanned with a scan step of 1 nm from 650 to 190 nm. Measurements at pH = 10 were not performed in all systems, because of the necessity of using too high drug concentrations and because of problems with separation of two phases.

[6] = set-up: method as in earlier work; details: aqueous ethanol; cited from earlier work
[7] = pH 2, aqueous buffer, pH 2, T = 298.15 K
[8] = pH 2, aqueous buffer, pH 2, T = 310.15 K
[9] = pH 7, aqueous buffer, pH 7, T = 298.15 K
[10] = pH 7, aqueous buffer, pH 7, T = 310.15 K
[11] = previous work, densimetry and 1H NMR measurements

Structure (SMILES)	entropy change (ΔS) of complexation [3]	solubility at 20 h [4, 7]	solubility at 20 h [4, 8]	solubility at 20 h [4, 9]	solubility at 20 h [4, 10]	cyclodextrin-drug complex stability constant Ks ([5]; pH 2, T = 298.15 K)	Kd ([5]; pH 2, T = 298.15 K)	solubility enhance ratio (R) ([5]; pH 2, T = 298.15 K)	cyclodextrin-drug complex stability constant Ks ([5]; pH 2, T = 310.15 K)	Kd ([5]; pH 2, T = 310.15 K)	solubility enhance ratio (R) ([5]; pH 2, T = 310.15 K)	cyclodextrin-drug complex stability constant Ks ([5]; pH 7, T = 298.15 K)	Kd ([5]; pH 7, T = 298.15 K)	solubility enhance ratio (R) ([5]; pH 7, T = 298.15 K)	cyclodextrin-drug complex stability constant Ks ([5]; pH 7, T = 310.15 K)	Kd ([5]; pH 7, T = 310.15 K)	solubility enhance ratio (R) ([5]; pH 7, T = 310.15 K)	stability constant log Ks [5]	free energy change (ΔG) of complexation [3]	further results
O=C(O)c1ccccc1Nc1cccc(C(F)(F)F)c1 [Flufenamic acid]	50.2 J·mol^−1·K^−1	6 µM (≈ 1.69 µg/mL)	15 µM (≈ 4.22 µg/mL)	228 µM (≈ 64.1 µg/mL)	298 µM (≈ 83.8 µg/mL)	3055 M⁻¹	0.33 mM	31.0	1850 M⁻¹	0.54 mM	19.0	202 M⁻¹	4.95 mM	2.9	218 M⁻¹	4.59 mM	3.0	2.30		solubility in water [1]: 2.38 × 10^−2 mmol·dm^−3; stability constant log Ks ([2]; phase-solubility diagrams, pH = 6.75, T = 298.15 K): 2.36
Cc1cccc(Nc2ccccc2C(=O)O)c1C [Mefenamic acid]	−33.0 J·mol^−1·K^−1	1 µM (≈ 0.241 µg/mL)	1 µM (≈ 0.241 µg/mL)	155 µM (≈ 37.4 µg/mL)	220 µM (≈ 53.1 µg/mL)	539 M⁻¹	1.86 mM	6.4	1627 M⁻¹	0.62 mM	17.3	383 M⁻¹	2.61 mM	4.6	562 M⁻¹	1.78 mM	6.0		-3.51 kcal/mol	solubility in water ([1]; pH between 3 and 6): 0.87 × 10^−4 mmol·dm^−3
O=C(O)c1cccnc1Nc1cccc(C(F)(F)F)c1 [Niflumic acid]	4.3 J·mol^−1·K^−1	698 µM (≈ 197 µg/mL)	925 µM (≈ 261 µg/mL)	5750 µM (≈ 1620 µg/mL)	8170 µM (≈ 2310 µg/mL)	26 M⁻¹	38.9 mM	1.3	33 M⁻¹	29.2 mM	1.3	96 M⁻¹	10.4 mM	1.6	82 M⁻¹	12.2 mM	1.5	1.98	-2.7 kcal/mol	stability constant log Ks ([2]; 1H NMR, pH = 7.4, T = 298.15 K): 2.3; free energy change (ΔG) of complexation ([2]; T = 298.15 K, pH = 7.4): -2.94 kcal/mol; stability constant log Ks ([2]; UV-vis, pH = 7.4, T = 298.15 K): 3.09; stability constant log Ks ([2]; calorimetric measurements, pH = 7.4, T = 298.15 K): 2.2; stability constant log Ks ([2]; densimetry, pH = 7.4, T = 298.15 K): 2.8; stability constant log Ks ([2]; pH = 7, T = 298.15 K, cyclodextrin not named at the place): 2.72; stability constant log Ks ([2]; pH = 12, T = 298.15 K, cyclodextrin not named at the place): 2.53; enthalpy of complexation [2, 11]: -4.8 kcal/mol; entropy of complexation [2, 11]: negative; enthalpy change (ΔH) of complexation [3]: -2.39 kcal/mol
Oc1cc(Cl)ccc1Oc1ccc(Cl)cc1Cl [triclosan]																				solubility increase on complexation with 2HP-β-CD [6]: 70 fold
